Measurements reported in publication PMC6152416, “Pharmacological and Toxicological Screening of Novel Benzimidazole-Morpholine Derivatives as Dual-Acting Inhibitors” (Molecules : A Journal of Synthetic Chemistry and Natural …, 2017).
Entries after “also recorded” stand apart in the source; their conditions may differ. Marks after values point to notes of the source that are not given here.

What was measured:
[1] = test system: Salmonella typhimurium TA98; experiment: Ames MPF genotoxicity assay; format: cell-based
Method: (§1) The genotoxicity of selected compounds (2b, 2j, 2m) was determined by Ames assay using Ames MPF 98/100 mutagenicity assay sample kit (Xenometrix AG, Allschwil, Switzerland) as previously described elsewhere. Salmonella typhimurium strains, TA98 (frameshift mutations) and TA100 (base-pair substitutions) were used in the assay. The concentration of the compounds was between 16 and 5000 μg/mL, in accordance with the guideline. Compounds were prepared in six different concentrations (5.0, 2.5, 1.25, 0.625, 0.3125, 0.156 mg/mL) in DMSO. Mutagenic potential was determined in the absence or presence of Aroclor™-1254 induced male Sprague–Dawley rat liver microsomal enzyme (S9) mix (Xenometrix AG). Positive controls without S9 mix were 2-nitrofluorene (2.0 μg/mL) and 4-nitroquinoline N-oxide (0.1 μg/mL), whereas 1.0 μg/mL and 2.5 μg/mL of 2-aminoanthracene solutions were used as positive controls with S9 against TA98 and TA100, respectively. Solvent control was prepared with 4% DMSO. The end of an experiment was determined by the change of the indicator medium colour to yellow, which was originating from the decrease of pH due to revertant bacteria. Yellow wells were counted as positive, and compared with the negative control. Fold induction over the negative control and fold induction over the baseline were calculated (Fold induction over the negative control is accepted as the ratio of the mean number of positive wells for the dose concentration divided by the mean number of positive wells for the zero dose (negative) control. Fold induction over the baseline is accepted as the ratio of the mean number of positive wells for the dose concentration divided by zero dose baseline. The zero-dose baseline is obtained by adding one standard deviation to the mean number of positive wells of the zero dose control. If the baseline is less than 1, the value is set to 1 for calculation).
(§2) Mutagenicity was determined according to the criteria reported previously. For a baseline value of ≤3, significant increases between 2 and 3-fold of the baseline were classified as weak mutagen, and increases ≥3-fold of the baseline were classified as mutagen. […] As a rule, at least two adjacent doses with significant increases or a significant increase at the highest dose level should be observed for a mutagenic compound. All of the doses were compared according to Student’s t-test at p < 0.05 for statistical significance.

[2] = test system: Salmonella typhimurium TA100; experiment: Ames MPF genotoxicity assay; format: cell-based
Method: as §1, §2

COX-2 = biological target: T1, COX-2 (Homo sapiens, UniProt P35354); experiment: Fluorimetric COX-2 inhibition screening kit (BioVision); format: biochemical
T1 construct: purchased BioVision (Milpitas, CA, USA) K547-100
T1 sequence (P35354 18-604): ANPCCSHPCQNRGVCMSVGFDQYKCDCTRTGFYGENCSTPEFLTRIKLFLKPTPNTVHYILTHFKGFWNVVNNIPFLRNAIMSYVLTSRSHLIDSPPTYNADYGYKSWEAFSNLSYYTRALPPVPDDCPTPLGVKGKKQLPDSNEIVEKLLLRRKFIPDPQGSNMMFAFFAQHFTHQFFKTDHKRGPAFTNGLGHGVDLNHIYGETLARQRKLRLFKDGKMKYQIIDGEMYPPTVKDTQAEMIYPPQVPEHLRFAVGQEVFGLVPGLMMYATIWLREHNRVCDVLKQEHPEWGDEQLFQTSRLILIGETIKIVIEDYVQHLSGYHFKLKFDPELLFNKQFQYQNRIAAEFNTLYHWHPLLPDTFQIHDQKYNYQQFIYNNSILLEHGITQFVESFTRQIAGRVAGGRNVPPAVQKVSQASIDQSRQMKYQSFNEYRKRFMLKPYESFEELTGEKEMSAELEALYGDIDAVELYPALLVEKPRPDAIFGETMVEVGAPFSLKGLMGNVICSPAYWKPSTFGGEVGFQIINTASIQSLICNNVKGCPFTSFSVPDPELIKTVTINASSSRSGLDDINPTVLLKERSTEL
Procedure, shortened: (§3)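 Kit-based fluorimetric assay with human COX-2 or ovine COX-1, read kinetically at 25 °C for 5–10 min (ex 535 nm, em 587 nm). Slope from two points in the linear range; % inhibition relative to enzyme control slope, IC50 by regression of activity against concentration.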

COX-1 = biological target: T2, COX-1 (Ovis aries, UniProt P05979); experiment: Fluorimetric COX-1 inhibition screening kit (BioVision); format: biochemical
T2 construct: purchased BioVision (Milpitas, CA, USA) K548-100
Procedure, shortened: as §3

T2 sequence (P05979 25-600): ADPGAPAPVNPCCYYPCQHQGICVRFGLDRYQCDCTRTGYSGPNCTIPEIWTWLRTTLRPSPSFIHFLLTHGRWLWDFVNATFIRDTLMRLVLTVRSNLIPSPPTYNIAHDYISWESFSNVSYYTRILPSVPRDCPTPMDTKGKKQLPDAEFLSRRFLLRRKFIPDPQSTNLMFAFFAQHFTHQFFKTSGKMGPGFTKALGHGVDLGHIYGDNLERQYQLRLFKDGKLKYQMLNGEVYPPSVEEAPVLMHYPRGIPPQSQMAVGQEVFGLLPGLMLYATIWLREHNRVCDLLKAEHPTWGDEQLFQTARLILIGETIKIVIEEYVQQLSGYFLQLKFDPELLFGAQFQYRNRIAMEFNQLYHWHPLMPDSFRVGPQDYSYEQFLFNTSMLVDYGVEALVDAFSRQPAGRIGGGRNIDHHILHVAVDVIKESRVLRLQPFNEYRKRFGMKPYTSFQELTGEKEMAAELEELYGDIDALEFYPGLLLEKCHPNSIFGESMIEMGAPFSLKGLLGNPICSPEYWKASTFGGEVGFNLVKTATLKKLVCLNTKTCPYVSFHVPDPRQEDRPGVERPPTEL

FC(F)(F)Oc1ccc(-c2nc3ccccc3n2CCN2CCOCC2)cc1 [Compound 2m, 2-(4-Trifluoromethoxyphenyl)-1-[2-(morpholin-4-yl)ethyl]-1H-benzimidazole]
REVERTANTS Fold Increase (over Baseline) ([1]; TA98, S9+, 0.156 mg/mL): 0.46 | REVERTANTS Fold Increase (over Baseline) ([1]; TA98, S9+, 0.3125 mg/mL): 0.62 | REVERTANTS Fold Increase (over Baseline) ([1]; TA98, S9+, 0.625 mg/mL): 0.77 | REVERTANTS Fold Increase (over Baseline) ([1]; TA98, S9+, 1.25 mg/mL): 0.46 | REVERTANTS Fold Increase (over Baseline) ([1]; TA98, S9+, 2.5 mg/mL): 1.23 | REVERTANTS Fold Increase (over Baseline) ([1]; TA98, S9+, 5 mg/mL): 0.31 | REVERTANTS Fold Increase (over Baseline) ([1]; TA98, S9−, 0.156 mg/mL): 0.95 | REVERTANTS Fold Increase (over Baseline) ([1]; TA98, S9−, 0.3125 mg/mL): 0.70 | REVERTANTS Fold Increase (over Baseline) ([1]; TA98, S9−, 0.625 mg/mL): 0.57 | REVERTANTS Fold Increase (over Baseline) ([1]; TA98, S9−, 1.25 mg/mL): 1.08 * | REVERTANTS Fold Increase (over Baseline) ([1]; TA98, S9−, 2.5 mg/mL): 0.82 | REVERTANTS Fold Increase (over Baseline) ([1]; TA98, S9−, 5 mg/mL): 1.08 * | Ames MPF mutagenicity classification ([1]; TA98, in the presence/absence of metabolic activation (S9)): non-genotoxic; also recorded: non-mutagenic | REVERTANTS Fold Increase (over Baseline) ([2]; TA100, S9+, 0.156 mg/mL): 0.10 | REVERTANTS Fold Increase (over Baseline) ([2]; TA100, S9+, 0.3125 mg/mL): 0.10 | REVERTANTS Fold Increase (over Baseline) ([2]; TA100, S9+, 0.625 mg/mL): 0.88 | REVERTANTS Fold Increase (over Baseline) ([2]; TA100, S9+, 1.25 mg/mL): 0.19 | REVERTANTS Fold Increase (over Baseline) ([2]; TA100, S9+, 2.5 mg/mL): 0.49 | REVERTANTS Fold Increase (over Baseline) ([2]; TA100, S9+, 5 mg/mL): 0.29 | REVERTANTS Fold Increase (over Baseline) ([2]; TA100, S9−, 0.156 mg/mL): 0.61 | REVERTANTS Fold Increase (over Baseline) ([2]; TA100, S9−, 0.3125 mg/mL): 0.88 | REVERTANTS Fold Increase (over Baseline) ([2]; TA100, S9−, 0.625 mg/mL): 0.47 | REVERTANTS Fold Increase (over Baseline) ([2]; TA100, S9−, 1.25 mg/mL): 0.47 | REVERTANTS Fold Increase (over Baseline) ([2]; TA100, S9−, 2.5 mg/mL): 0.54 | REVERTANTS Fold Increase (over Baseline) ([2]; TA100, S9−, 5 mg/mL): 0.61 | Ames MPF mutagenicity classification ([2]; TA100, with/without metabolic activation (S9)): non-genotoxic; also recorded: non-mutagenic | IC50 (COX-2): 22.7 µM | COX-2 Inhibition (%) (COX-2; 10^-3 M): 64.22% | COX-2 Inhibition (%) (COX-2; 10^-4 M): 59.67% | COX-2 inhibition at the initial concentrations (COX-2; 10^−3 M and 10^−4 M): more than 50% | inhibition at 10 µM (COX-2; 10^−5 M): 46.1 ± 1.13% | inhibition at 0.1 µM (COX-2; 10^−7 M): 34.5 ± 0.97% | inhibition at 0.01 µM (COX-2; 10^−8 M): 28.7 ± 0.83% | inhibition at 0.001 µM (COX-2; 10^−9 M): 22.3 ± 0.52% | inhibition at 1 µM (COX-2; read-out: COX 2 Inhibition %): 41.2 ± 1.05% | IC50 (COX-1): 21.9 µM | COX-1 Inhibition (%) (COX-1; 10^-3 M): 79.15% | COX-1 Inhibition (%) (COX-1; 10^-4 M): 78.61% | COX-1 inhibition at the initial concentrations (COX-1; 10^−3 M and 10^−4 M): more than 50% | inhibition at 10 µM (COX-1; 10^−5 M): 47.4 ± 1.16% | inhibition at 1 µM (COX-1; 10^−6 M): 42 ± 0.88% | inhibition at 0.1 µM (COX-1; 10^−7 M): 36.6 ± 0.92% | inhibition at 0.01 µM (COX-1; 10^−8 M): 26.2 ± 0.79% | inhibition at 0.001 µM (COX-1; 10^−9 M): 20 ± 0.62%
